# From ChEMBL document CHEMBL3596145, “Structure and inhibition studies of a type II beta-carbonic anhydrase psCA3 from Pseudomonas aeruginosa” (Bioorg Med Chem, 2015)
# Calls of active or inactive are those of the source. The rule behind the calls is not given here.
# Molecular target: T1, Carbonic anhydrase (Pseudomonas aeruginosa (strain ATCC 15692 / PAO1 / 1C / PRS 101 / LMG12228), UniProt Q9HVB9)
# T1 sequence (Q9HVB9 whole entry): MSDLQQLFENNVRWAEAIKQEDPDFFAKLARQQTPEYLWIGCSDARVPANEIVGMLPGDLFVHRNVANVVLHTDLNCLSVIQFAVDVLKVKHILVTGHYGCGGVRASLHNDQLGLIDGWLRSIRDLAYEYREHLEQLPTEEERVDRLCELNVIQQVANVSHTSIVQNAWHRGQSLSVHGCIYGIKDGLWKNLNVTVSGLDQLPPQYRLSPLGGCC
# Assay: biochemical
# Format: cell-based, BL21-DE3
row,Structure (SMILES),Ki
1,O=[Te](=O)(O)O [SODIUM TELLURATE],7900 µM
2,O=NO [SODIUM NITRITE],940 µM
3,[N-]=[N+]=[N-] [SODIUM AZIDE],770 µM
4,O=[N+]([O-])[O-].[Na+] [SODIUM NITRATE],14200 µM
5,[I-].[Na+] [SODIUM IODIDE],> 100000 µM
6,NS(N)(=O)=O [SULFAMIDE],8 µM
7,O=S([O-])O.[Na+] [SODIUM BISULFITE],7000 µM
8,OB(O)c1ccccc1 [PHENYLBORONIC ACID],8 µM
9,O=S(=O)(O)ONOS(=O)(=O)O [SODIUM IMINODISULFATE],4700 µM
10,O=S(=O)(O)OOS(=O)(=O)O [SODIUM PERSULFATE],720 µM
11,F[B-](F)(F)F.[Na+] [SODIUM TETRAFLUOROBORATE],> 100000 µM
12,[Cl-].[Na+] [SODIUM CHLORIDE],> 100000 µM
13,[F-].[Na+] [SODIUM FLUORIDE],> 100000 µM
14,O=BOB(O)OB(O)OB=O [SODIUM TETRABORATE],9100 µM
15,N#C[S-].[Na+] [THIOCYANATE SODIUM],610 µM
16,N#C[SeH] [SODIUM SELENOCYANATE],680 µM
17,[O-][Cl+3]([O-])([O-])O [SODIUM PERCHLORATE],> 100000 µM
18,O=C([O-])O.[Na+] [SODIUM BICARBONATE],3200 µM
19,O=[Se](=O)(O)O [SODIUM SELENATE],23500 µM
20,S=C(S)S [SODIUM CARBONOTRITHIOATE],840 µM
21,N#CO [SODIUM CYANATE],650 µM
22,Nc1cccc(S(N)(=O)=O)c1,0.032 µM
23,[Br-].[Na+] [SODIUM BROMIDE],> 100000 µM
24,CCN(CC)C(=S)S [DITIOCARB SODIUM],330 µM
25,O=S(=O)([O-])[O-].[Na+].[Na+] [SODIUM SULFATE ANHYDROUS],> 100000 µM
26,NS(=O)(=O)O [SULFAMATE],38 µM
27,S [SODIUM HYDROSULFIDE],620 µM

# Test system: Pseudomonas aeruginosa
# Assay: Induction of growth delay of Pseudomonas aeruginosa PAO1 assessed as growth delay time
# Format: functional
row,Structure (SMILES),Time
1,NS(N)(=O)=O [SULFAMIDE],1 h

# Test system: Pseudomonas aeruginosa
# Assay: Induction of growth defect in Pseudomonas aeruginosa PAO1 up to 1 mM
# Format: functional, organism-based
row,Structure (SMILES),Activity
1,NS(N)(=O)=O [SULFAMIDE],Active

# Test system: Pseudomonas aeruginosa
# Assay: Growth inhibition of Pseudomonas aeruginosa PAO1
# Format: functional, organism-based
row,Structure (SMILES),growth inhibition (GI)
1,NS(N)(=O)=O [SULFAMIDE],inactive
